The text below walks through data of US8703424B2, “Predicting human developmental toxicity of pharmaceuticals using human stem-like cells and metabolomics” (Stemina Biomarker Discovery, Inc., priority 2010, dated 2014).

This series has as its system WA09 hESCs. The experiment in a line: Random forest prediction of teratogenicity from metabolomics of spent media of dosed hESCs. The series is classed as cell-based, human. To be noted: blind study; model trained on TS1, 142 mass features; circulating dose. How it is done: WA09 hESCs, obtained from WiCell Research Institute (NIH National Stem Cell Bank, Madison, Wis.) were cultured in 6-well plates on Matrigel (BD Biosciences, San Jose, Calif.), in mTeSR1 medium (Stem Cell Technologies, Vancouver, BC) incubated at 37° C. under 5% CO2 in a Thermo Electron Form a Series II Water Jacket CO2 Incubator. hESCs were passaged every three or four days at a 1:3 or 1:6 seeding density for routine culture conditions. For dosing experiments, hESCs were passaged at a low density of 1:10 or 1:12 so that they would not require passaging during the […] dosing protocol. To passage hES cells, the StemPro® EZPassage™ disposable stem cell passaging tool (Invitrogen, Carlsbad, Calif.) was used to detach the cells from the wells. Detached cells were removed with a pipette and distributed to new Matrigel plates.
These medium controls provided baseline mass spectral data.
The 2.5 mL of spent media per well from Example 1 was added to 1.67 mL acetonitrile to make a 40% acetonitrile solution. The acetonitrile acts to “quench” the spent media sample, slowing or halting many metabolic processes and aiding in precipitation of cellular proteins. Samples were either stored at −80° C. for later analysis, or for immediate analysis, 250 μL of the quenched solution was mixed with 250 μL of water, to a final concentration of 20% acetonitrile, then added to a 3 kDa molecular weight cut-off filter spin column (Microcon YM-3 Centrifugal Filter, Millipore, Billerica, Mass.). Each sample was then centrifuged in an IEC CL31R Multispeed Centrifuge (Thermo Scientific, Waltham, Mass.) at 13,000×g at 4° C. for 200 minutes. Following centrifugation, the flow-through was saved then dried for several hours in a Savant High Capacity Speedvac Plus Concentrator. The concentrated sample was then dissolved in 50 μL of 0.1% formic acid prior to LC-MS analysis.
5 μl of each sample was injected.
Following LC-MS, chromatograms were inspected for reproducibility. LC-MS runs with total ion counts that vary by more than 25% were repeated to ensure that samples could be accurately compared. These runs were then used to create mass features that correspond to molecules detected across the different LC-MS runs. Mass features were extracted from the LC-MS data using MassHunter Qualitative Analysis software (Agilent Technologies). The following criteria were used as general guidelines, however some flexibility and optimization was needed. m/z values within the range of 75-1500, with a charge of +1 or −1, and a centroid height greater than 1000 were used to generate “mass features.” The mass peaks that pass these criteria were used to fit isotope and adduct (Na^+, K^+, and NH4^+) patterns corresponding to individual molecules, and to establish the abundance of each mass feature. The abundance is calculated by MassHunter software as the sum of the isotopic and adduct peaks that correspond to a single molecular feature. After data deconvolution, mass features showing at least two ions (e.g. (M^+H)^+ and (M^+H)^++1 or (M^+H)^+ and (M^+Na)^+) and an abundance value greater than 50000 for positive-ion mode data and 10000 in negative-ion mode data were included in the data set used for binning of the mass features.
Following feature selection by MassHunter, the data was further preprocessed by MassProfiler (Agilent) software which aligns mass features across multiple LC-MS data files. Mass features were generated for data from each drug treatment experiment (dosed and control) using the default alignment settings in MassProfiler with the requirement that a feature be present in at least 80% of the samples in one treatment. The mass feature datasets for each drug treatment experiment were further processed in a global manner using custom analysis scripts executed in the R statistical software environment. […]

Turning to `CN(C)CCOC(C)(c1ccccc1)c1ccccn1` (stereo not shown) [Doxylamine], the “Predicted teratogenicity (random forest statistical model)” value is recorded as “Non”.
